Test results as given in paper PMC8387997 (ACS Omega, 2021).
Entries after “also recorded” stand apart in the source; their conditions may differ.

What was measured:
PB1(2) = PB1(2) (Homo sapiens, UniProt Q86U86); test: bromoSCAN; format: binding
PB1(5) = PB1(5) (Homo sapiens, UniProt Q86U86); test: bromoSCAN; format: binding; conditions: for selectivity for PB1(5) over SMARCA2B: from bromoSCAN KD values
SMARCA2B = SMARCA2B (Homo sapiens, UniProt P51531); test: bromoSCAN; format: binding
BRD9 = BRD9 versus other bromodomains; cited from earlier work
[1] = tested on: panel of 32 bromodomains, including BET bromodomains; test: bromoMAX panel screen, Eurofins; format: binding; conditions: screened at 10 μM against 32 bromodomains

PB1(2), sequence (Q86U86 177-287 limits assumed): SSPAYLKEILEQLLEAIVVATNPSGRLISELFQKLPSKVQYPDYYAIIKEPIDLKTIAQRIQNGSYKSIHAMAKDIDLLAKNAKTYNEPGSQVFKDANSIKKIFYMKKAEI
PB1(5), sequence (Q86U86 653-763 limits assumed): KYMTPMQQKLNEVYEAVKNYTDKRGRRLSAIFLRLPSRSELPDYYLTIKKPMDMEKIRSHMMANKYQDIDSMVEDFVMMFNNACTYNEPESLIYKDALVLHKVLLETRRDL
SMARCA2B, sequence (P51531 1-1572 isoform P51531-2): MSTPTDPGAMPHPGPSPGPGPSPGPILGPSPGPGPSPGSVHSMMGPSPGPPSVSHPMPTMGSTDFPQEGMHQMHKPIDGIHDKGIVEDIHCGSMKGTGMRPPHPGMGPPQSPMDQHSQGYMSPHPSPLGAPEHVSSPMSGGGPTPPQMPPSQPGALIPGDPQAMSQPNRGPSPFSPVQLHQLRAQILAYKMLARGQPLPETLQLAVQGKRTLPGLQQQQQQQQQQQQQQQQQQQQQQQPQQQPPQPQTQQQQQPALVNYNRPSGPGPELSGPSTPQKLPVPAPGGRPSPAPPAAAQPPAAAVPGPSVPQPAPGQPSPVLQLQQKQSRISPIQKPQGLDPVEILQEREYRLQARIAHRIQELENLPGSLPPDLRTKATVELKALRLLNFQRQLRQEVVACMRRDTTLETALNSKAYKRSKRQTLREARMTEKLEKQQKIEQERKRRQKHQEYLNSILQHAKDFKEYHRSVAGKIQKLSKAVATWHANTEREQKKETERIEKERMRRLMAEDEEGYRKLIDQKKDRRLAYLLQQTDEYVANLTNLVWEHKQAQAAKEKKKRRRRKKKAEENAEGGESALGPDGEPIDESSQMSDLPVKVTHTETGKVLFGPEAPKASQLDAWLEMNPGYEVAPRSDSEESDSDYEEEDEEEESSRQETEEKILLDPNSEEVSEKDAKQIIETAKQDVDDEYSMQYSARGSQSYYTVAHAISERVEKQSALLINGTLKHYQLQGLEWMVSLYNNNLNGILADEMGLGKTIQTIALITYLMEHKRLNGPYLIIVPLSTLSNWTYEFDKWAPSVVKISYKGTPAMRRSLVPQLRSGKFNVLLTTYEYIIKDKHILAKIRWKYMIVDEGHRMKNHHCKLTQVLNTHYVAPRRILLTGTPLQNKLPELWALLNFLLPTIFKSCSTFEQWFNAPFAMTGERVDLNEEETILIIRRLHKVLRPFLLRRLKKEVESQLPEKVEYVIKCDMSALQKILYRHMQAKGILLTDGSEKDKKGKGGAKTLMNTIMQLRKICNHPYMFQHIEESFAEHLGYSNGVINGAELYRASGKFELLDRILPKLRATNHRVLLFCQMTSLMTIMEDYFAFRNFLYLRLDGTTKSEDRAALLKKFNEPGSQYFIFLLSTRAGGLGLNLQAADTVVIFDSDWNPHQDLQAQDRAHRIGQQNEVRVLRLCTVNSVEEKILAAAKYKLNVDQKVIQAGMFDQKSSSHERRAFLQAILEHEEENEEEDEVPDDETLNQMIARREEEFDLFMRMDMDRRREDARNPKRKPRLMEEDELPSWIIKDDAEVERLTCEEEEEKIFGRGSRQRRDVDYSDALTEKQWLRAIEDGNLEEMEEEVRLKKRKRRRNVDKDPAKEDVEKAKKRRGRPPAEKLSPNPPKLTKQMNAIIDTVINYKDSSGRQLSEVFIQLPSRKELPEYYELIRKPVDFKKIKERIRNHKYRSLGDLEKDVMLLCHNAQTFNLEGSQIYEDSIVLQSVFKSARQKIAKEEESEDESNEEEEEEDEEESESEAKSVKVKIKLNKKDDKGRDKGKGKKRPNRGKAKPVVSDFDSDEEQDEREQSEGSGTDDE

With `CCC(/C=C1\CCCn2c1nc(=O)c1c(Cl)cccc12)CC` [Compound 21, (E)-7-Chloro-4-(2-ethylbutylidene)-1,2,3,4-tetrahydro-6H-pyrido[1,2-a]quinazolin-6-one] the Kd (PB1(2)) was 5400 nM, the Kd (PB1(5)) was 1100 nM and the “selectivity for PB1(5) over SMARCA2B” value (PB1(5)) was ~24 fold. For the same compound, the Kd (SMARCA2B) was 26000 nM.
In the case of `CCn1cc(-c2cccc(C(F)(F)F)c2)c2sc(C(=N)NC3CCS(=O)(=O)CC3)cc2c1=O` [I-BRD9], the “selectivity over a panel of other bromodomains” value (BRD9) is listed as “more than 70 fold”.
With `CCC(CC)C1CC12CCn1c2nc(=O)c2c(Cl)cccc21` (centres unmarked) [LM146, 6′-Chloro-2-(pentan-3-yl)-1′,2′-dihydro-5′H-spiro[cyclopropane-1,3′-pyrrolo[1,2-a]quinazolin]-5′-one] the Kd (PB1(2)) was 110 nM, the “selectivity for PB1(2) over SMARCA2B” value (PB1(2); from bromoSCAN KD values) was ~19 fold and the Kd (PB1(5)) was 61 nM. The “selectivity for PB1(5) over SMARCA2B” value (PB1(5)) was ~34 fold, the Kd (SMARCA2B) was 2100 nM and the “binding profile in bromoMAX panel” value [1] was “does not interact with bromodomains outside of sub-family VIII; also recorded: only binds to bromodomains within the sub-family VIII; also recorded: no binding to any bromodomains outside the sub-family VIII”.
